Results from ChEMBL document CHEMBL1131838, “8-acenaphthen-1-yl-1-phenyl-1,3,8-triaza-spiro[4.5]decan-4-one derivatives as orphanin FQ receptor agonists” (Bioorg Med Chem Lett, 1999).
Active and inactive are the calls of the source. No cut-off for these calls is given here.

Assays:
[1] = Compound was evaluated for the opioid receptor agonistic activity at dose 1-10 mg/kg by intraperitoneal administration; Inactive; format: functional, organism-based
D(4) dopamine receptor = target: T1, D(4) dopamine receptor (Homo sapiens, UniProt P21917); test: Affinity against Dopamine receptor D4.4
T1 sequence (P21917 whole entry): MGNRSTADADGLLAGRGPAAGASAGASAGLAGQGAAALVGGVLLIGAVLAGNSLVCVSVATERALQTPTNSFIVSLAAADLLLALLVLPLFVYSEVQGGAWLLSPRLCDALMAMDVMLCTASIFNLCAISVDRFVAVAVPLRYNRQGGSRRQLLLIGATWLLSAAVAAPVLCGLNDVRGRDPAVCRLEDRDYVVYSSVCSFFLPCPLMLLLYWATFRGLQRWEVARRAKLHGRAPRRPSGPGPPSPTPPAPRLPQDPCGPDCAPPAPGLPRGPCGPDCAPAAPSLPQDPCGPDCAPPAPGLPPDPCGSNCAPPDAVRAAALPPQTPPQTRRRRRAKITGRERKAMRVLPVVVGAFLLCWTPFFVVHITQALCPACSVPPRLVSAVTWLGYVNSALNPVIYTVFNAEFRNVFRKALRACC

Rattus norvegicus [2] = test: Spontaneous locomotion in rats was determined and distance moved was reported at dose 0.32 mg/kg by ip administration; format: functional; conditions: route intraperitoneal
[3] = target: T2, Corticotropin-releasing factor receptor 1 (Rattus norvegicus, UniProt P35353); test: Affinity against Corticotropin releasing factor receptor 1
T2 sequence (P35353 whole entry): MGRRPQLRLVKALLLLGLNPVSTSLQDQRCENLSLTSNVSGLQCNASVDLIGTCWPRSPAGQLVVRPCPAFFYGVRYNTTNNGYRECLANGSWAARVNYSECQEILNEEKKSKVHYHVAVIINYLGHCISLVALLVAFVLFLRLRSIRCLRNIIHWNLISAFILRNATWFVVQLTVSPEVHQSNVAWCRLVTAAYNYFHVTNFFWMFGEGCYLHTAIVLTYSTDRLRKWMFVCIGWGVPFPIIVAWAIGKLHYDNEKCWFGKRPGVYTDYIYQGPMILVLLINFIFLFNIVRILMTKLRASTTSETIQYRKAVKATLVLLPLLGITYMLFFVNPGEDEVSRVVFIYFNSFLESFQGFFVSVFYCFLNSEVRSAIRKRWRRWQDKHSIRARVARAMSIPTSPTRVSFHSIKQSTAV

D(1A) dopamine receptor = D(1A) dopamine receptor (Mus musculus, UniProt Q61616); test: Affinity against Dopamine receptor D1
D(1A) dopamine receptor, sequence (Q61616 whole entry): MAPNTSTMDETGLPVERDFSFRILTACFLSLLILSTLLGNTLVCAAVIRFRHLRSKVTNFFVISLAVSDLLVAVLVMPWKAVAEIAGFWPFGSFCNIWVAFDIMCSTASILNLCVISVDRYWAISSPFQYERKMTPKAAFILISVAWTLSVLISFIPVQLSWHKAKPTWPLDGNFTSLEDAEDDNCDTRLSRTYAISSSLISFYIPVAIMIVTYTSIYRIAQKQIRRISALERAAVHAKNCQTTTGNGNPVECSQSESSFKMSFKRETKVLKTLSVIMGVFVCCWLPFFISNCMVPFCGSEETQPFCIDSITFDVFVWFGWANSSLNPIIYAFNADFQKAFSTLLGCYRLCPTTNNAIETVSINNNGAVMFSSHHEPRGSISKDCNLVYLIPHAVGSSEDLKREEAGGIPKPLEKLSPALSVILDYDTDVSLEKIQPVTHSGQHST

Rattus norvegicus [4] = test: Forced motor performance in rats was determined and traction test score was reported at 3.2 mg/kg by ip administration; format: functional; conditions: route intraperitoneal
Rattus norvegicus [5] = test: Forced motor performance in rats was determined and traction test score was reported at 1 mg/kg by ip administration; format: functional; conditions: route intraperitoneal
D(2) dopamine receptor = D(2) dopamine receptor (Homo sapiens, UniProt P14416); test: Affinity against Dopamine receptor D2
D(2) dopamine receptor, sequence (P14416 whole entry): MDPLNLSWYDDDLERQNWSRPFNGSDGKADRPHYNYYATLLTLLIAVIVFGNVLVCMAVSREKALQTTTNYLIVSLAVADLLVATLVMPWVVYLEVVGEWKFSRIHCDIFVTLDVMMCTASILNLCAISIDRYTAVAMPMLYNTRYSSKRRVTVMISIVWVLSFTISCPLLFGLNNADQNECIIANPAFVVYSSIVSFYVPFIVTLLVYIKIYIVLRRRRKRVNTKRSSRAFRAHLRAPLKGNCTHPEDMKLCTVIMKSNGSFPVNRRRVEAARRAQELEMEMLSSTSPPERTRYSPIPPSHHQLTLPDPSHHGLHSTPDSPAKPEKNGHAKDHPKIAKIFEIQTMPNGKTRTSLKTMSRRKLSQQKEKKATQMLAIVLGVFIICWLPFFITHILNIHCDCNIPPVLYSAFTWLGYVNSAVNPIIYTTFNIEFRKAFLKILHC

Rattus norvegicus [6] = test: Spontaneous locomotion in rats was determined and distance moved was reported at dose 3.2 mg/kg by ip administration; format: functional; conditions: route intraperitoneal
Rattus norvegicus [7] = test: Forced motor performance in rats was determined and grip strength was reported at 0.32 mg/kg by ip administration; format: functional; conditions: route intraperitoneal
[8] = target: 5-hydroxytryptamine receptor 2A (Homo sapiens, UniProt P28223); test: Affinity against 5-hydroxytryptamine 2A receptor
5-hydroxytryptamine receptor 2A, sequence (P28223 whole entry): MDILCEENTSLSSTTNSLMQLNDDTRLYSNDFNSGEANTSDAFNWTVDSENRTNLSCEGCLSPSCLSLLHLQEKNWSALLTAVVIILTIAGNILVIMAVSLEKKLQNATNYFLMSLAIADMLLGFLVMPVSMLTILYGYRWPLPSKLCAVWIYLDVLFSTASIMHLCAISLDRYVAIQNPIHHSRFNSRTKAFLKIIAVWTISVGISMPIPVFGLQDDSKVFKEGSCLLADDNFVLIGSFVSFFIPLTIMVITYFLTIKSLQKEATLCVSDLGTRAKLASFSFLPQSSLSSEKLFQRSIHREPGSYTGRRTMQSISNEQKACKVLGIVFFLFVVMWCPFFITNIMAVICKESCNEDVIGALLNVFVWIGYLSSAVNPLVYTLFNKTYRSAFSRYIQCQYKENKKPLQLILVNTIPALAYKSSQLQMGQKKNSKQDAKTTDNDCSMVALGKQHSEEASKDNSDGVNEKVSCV

Rattus norvegicus [9] = test: Forced motor performance in rats was determined and traction test score was reported at 0.32 mg/kg by ip administration; format: functional; conditions: route intraperitoneal
Rattus norvegicus [10] = test: Spontaneous locomotion in rats was determined and distance moved was reported at dose 1 mg/kg by ip administration; format: functional; conditions: route intraperitoneal
[11] = target: 5-hydroxytryptamine receptor 1D (Homo sapiens, UniProt P28221); test: Affinity against 5-hydroxytryptamine 1D receptor alpha
5-hydroxytryptamine receptor 1D, sequence (P28221 whole entry): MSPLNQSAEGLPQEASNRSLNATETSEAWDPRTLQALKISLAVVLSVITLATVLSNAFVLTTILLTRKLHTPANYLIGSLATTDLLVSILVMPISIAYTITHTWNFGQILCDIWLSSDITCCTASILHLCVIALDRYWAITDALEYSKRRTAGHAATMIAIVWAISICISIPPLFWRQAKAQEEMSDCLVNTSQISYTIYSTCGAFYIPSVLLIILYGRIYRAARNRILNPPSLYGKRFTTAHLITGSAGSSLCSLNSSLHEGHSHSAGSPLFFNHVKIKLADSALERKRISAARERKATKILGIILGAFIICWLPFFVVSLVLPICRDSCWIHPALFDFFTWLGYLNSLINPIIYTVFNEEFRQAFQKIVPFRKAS

[12] = target: GABA-A receptor; anion channel; test: Binding affinity for GABA-A central benzodiazepine receptor; format: protein-complex assay
[13] = target: 5-hydroxytryptamine receptor 7 (Homo sapiens, UniProt P34969); test: Affinity against 5-hydroxytryptamine 7 receptor
5-hydroxytryptamine receptor 7, sequence (P34969 whole entry): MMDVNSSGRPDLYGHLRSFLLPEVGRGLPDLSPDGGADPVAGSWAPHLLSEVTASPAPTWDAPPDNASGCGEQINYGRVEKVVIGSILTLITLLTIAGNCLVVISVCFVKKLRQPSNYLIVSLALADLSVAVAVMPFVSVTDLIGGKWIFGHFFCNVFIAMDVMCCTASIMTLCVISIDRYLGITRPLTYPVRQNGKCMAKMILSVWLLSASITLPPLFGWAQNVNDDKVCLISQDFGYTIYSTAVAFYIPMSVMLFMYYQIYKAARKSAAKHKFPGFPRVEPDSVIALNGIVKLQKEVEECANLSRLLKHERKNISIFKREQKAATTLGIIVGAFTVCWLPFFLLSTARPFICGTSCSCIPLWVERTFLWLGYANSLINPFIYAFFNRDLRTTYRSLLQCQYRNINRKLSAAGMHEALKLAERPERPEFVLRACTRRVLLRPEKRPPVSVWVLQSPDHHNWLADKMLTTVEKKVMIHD

Rattus norvegicus [14] = test: Forced motor performance in rats was determined and grip strength was reported at 1 mg/kg by ip administration; format: functional; conditions: route intraperitoneal
[15] = target: 5-hydroxytryptamine receptor 6 (Homo sapiens, UniProt P50406); test: Affinity against 5-hydroxytryptamine 6 receptor
5-hydroxytryptamine receptor 6, sequence (P50406 whole entry): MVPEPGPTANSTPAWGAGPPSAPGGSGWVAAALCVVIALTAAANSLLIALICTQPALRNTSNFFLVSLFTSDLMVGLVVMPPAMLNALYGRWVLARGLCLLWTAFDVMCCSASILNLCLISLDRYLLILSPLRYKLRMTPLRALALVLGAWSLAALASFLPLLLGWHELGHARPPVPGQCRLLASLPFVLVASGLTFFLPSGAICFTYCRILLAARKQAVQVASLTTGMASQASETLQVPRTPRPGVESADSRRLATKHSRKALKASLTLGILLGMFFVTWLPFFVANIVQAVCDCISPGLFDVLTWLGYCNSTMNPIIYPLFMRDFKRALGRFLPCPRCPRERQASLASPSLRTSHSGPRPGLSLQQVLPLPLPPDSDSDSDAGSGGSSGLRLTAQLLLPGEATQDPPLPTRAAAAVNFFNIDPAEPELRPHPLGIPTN

D(3) dopamine receptor = D(3) dopamine receptor (Homo sapiens, UniProt P35462); test: Affinity against Dopamine receptor D3
D(3) dopamine receptor, sequence (P35462 whole entry): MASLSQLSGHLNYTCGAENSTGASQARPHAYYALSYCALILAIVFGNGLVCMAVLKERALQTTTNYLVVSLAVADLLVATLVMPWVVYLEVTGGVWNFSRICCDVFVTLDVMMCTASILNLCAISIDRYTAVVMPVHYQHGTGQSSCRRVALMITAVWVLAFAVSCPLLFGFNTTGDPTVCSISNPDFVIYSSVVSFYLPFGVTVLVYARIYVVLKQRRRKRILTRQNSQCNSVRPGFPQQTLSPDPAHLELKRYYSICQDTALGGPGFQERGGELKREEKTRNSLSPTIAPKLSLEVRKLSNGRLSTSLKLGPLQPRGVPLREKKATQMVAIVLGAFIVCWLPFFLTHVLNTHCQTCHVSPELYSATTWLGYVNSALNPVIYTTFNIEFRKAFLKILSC

Rattus norvegicus [16] = test: Forced motor performance in rats was determined and grip strength was reported at 3.2 mg/kg by ip administration; format: functional; conditions: route intraperitoneal
[17] = Affinity against Corticotropin releasing factor receptor 2 alpha
[18] = target: T3, 5-hydroxytryptamine receptor 2C (Homo sapiens, UniProt P28335); test: Affinity against 5-hydroxytryptamine 2C receptor
T3 sequence (P28335 whole entry): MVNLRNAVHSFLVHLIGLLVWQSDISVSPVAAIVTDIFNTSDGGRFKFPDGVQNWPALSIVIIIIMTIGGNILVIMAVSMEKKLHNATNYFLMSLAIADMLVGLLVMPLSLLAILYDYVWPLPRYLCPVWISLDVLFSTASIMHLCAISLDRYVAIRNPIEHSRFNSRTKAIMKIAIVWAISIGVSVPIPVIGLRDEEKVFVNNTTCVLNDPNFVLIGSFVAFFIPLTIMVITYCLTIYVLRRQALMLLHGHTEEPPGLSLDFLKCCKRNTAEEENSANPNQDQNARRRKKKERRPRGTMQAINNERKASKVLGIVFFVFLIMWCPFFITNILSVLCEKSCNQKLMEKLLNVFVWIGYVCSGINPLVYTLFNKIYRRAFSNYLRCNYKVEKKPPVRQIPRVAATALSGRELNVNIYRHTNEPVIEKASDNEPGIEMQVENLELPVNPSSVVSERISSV

In the case of `CN1CC[C@]23c4c5ccc(O)c4O[C@H]2[C@@H](O)C=C[C@H]3[C@H]1C5`, the Activity [1] is reported as “inactive”.

In the case of `O=C1NCN(c2ccccc2)C12CCN([C@@H]1Cc3cccc4cccc1c34)CC2`, the “Log Ki” value (D(4) dopamine receptor) is reported as less than -6.5, the Locomotion (Rattus norvegicus [2]) is reported as 1412.39 cm and the “Log Ki” value [3] is reported as less than -6.5. For the same molecule, the “Log Ki” value (D(1A) dopamine receptor) was less than -6.5, the Traction test (Rattus norvegicus [4]) was 3.75 score and the Traction test (Rattus norvegicus [5]) was 4 score. The “Log Ki” value (D(2) dopamine receptor) was less than -6.5, the Locomotion (Rattus norvegicus [6]) was 1141.08 cm and the Grip strength (Rattus norvegicus [7]) was 516.25 g. The “Log Ki” value [8] was less than -6.5, the Traction test (Rattus norvegicus [9]) was 4 score and the Locomotion (Rattus norvegicus [10]) was 1465.79 cm. The “Log Ki” value [11] was less than -6.5, the “Log Ki” value [12] was less than -6.5 and the “Log Ki” value [13] was less than -6.5. The Grip strength (Rattus norvegicus [14]) was 521.63 g, the “Log Ki” value [15] was less than -6.5 and the “Log Ki” value (D(3) dopamine receptor) was less than -6.5. The Grip strength (Rattus norvegicus [16]) was 479 g, the “Log Ki” value [17] was less than -6.5 and the “Log Ki” value [18] was less than -6.5.
